From BindingDB's records for doi:10.1016/j.bmcl.2005.12.051 (Procter & Gamble Pharmaceuticals, 2006)

Biological target: T1, Tyrosine-protein phosphatase non-receptor type 1 [1-298] (Homo sapiens, UniProt P18031)
T1 construct: 1-298
T1 sequence (P18031 whole entry): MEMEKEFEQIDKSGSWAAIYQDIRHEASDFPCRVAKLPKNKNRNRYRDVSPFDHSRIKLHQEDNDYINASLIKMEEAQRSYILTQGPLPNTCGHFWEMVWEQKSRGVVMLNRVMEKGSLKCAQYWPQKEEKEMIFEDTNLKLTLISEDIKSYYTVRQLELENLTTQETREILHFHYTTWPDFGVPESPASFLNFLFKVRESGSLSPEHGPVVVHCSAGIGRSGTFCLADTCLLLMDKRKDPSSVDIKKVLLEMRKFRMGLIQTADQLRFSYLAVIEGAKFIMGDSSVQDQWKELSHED
Test: Phosphatase Inhibition Assay
Details: for IC50: pH 7, 22 °C
Procedure: The activity of PTP1B enzyme was assayed with DiFMUP as substrate. Hydrolysis of substrate was monitored on a Victor V plate reader (Wallac). Kinetic measurements were measured using 3-5 concentrations of inhibitor around the IC50 over a range of substrate concentrations (3-500 uM). Data were used to determine Km/Ki/competitive inhibition using GraphPad Prism software.

Row | Structure (SMILES) | IC50 [µM] | Ki [µM]
1 | CNC(=O)[C@@H]1Cc2ccc(NS(=O)(=O)O)cc2CN1C(=O)C=Cc1coc2ccccc12 [ammonium N-[(3S)-2-[(2E)-3-(1-benzofuran-3-yl)prop-2-enoyl]-3-(methylcarbamoyl)-1,2,3,4-tetrahydroisoquinolin-7-yl]sulfamate] | 24.9 | 
2 | Cn1nc(-c2ccccc2)cc1NS(=O)(=O)O [N-(1-methyl-3-phenyl-1H-pyrazol-5-yl)sulfamic acid] |  | > 500
3 | CNC(=O)[C@@H]1Cc2ccc(NS(=O)(=O)O)cc2CN1C(=O)N[C@@H](Cc1ccccc1)C(=O)OC(C)(C)C [ammonium N-[(3S)-2-{[(2S)-1-(tert-butoxy)-1-oxo-3-phenylpropan-2-yl]carbamoyl}-3-(methylcarbamoyl)-1,2,3,4-tetrahydroisoquinolin-7-yl]sulfamate] | > 500 | 
